Measurements taken from PMC4061319 (Biotechnology for Biofuels, 2014).

What was measured:
[1] = molecular target: T1, SdCBP (cellobiose phosphorylase from Saccharophagus degradans) (Saccharophagus degradans, UniProt Q21L49); assay: initial rates of phosphorolysis from continuous G1P colorimetric assay, non-linear regression; assay type: biochemical; details: no xylose; 5 mM inorganic phosphate, 20 mM MES pH 6.0, 30°C, 10 nM enzyme
T1 construct: gene cep94A; CBP is a homodimer

[2] = molecular target: T1, SdCBP (cellobiose phosphorylase from Saccharophagus degradans); assay: competition assay of cellobiose phosphorolysis at […] xylose; assay type: biochemical; details: mixed inhibitor versus cellobiose; 5 mM inorganic phosphate, 20 mM MES pH 6.0, 30°C

T1 sequence (Q21L49 entry or part of it): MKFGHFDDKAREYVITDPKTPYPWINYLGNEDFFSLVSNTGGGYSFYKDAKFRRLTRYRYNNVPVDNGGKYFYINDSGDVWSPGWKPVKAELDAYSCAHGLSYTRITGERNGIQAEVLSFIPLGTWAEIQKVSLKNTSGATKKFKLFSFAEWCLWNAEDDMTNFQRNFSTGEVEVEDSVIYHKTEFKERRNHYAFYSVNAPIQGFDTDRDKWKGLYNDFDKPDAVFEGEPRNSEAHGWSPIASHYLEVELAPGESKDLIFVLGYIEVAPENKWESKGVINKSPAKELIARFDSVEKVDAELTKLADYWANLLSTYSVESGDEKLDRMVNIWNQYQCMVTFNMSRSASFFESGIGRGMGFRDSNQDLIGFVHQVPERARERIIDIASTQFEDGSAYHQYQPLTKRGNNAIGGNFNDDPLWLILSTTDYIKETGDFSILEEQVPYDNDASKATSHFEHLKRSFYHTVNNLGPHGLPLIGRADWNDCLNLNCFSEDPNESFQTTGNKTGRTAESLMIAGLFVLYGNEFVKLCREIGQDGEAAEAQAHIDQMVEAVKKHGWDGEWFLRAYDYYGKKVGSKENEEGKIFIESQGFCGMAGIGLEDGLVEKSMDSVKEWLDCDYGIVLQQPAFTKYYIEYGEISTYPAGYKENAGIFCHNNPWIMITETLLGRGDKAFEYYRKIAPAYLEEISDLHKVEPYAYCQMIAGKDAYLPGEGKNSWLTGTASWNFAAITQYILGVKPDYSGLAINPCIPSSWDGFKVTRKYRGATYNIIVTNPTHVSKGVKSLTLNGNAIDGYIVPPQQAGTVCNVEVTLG

For `OC[C@H]1O[C@@H](O[C@H]2[C@H](O)[C@@H](O)C(O)O[C@@H]2CO)[C@H](O)[C@@H](O)[C@@H]1O` (some centres unmarked) [cellobiose], the “KM,app” value [1] was “Initial rates of cellobiose phosphorolysis were calculated from the amount of G1P produced”.

For `OC1OC[C@@H](O)[C@H](O)[C@H]1O` (some centres unmarked) [xylose], the “competition assay of cellobiose phosphorolysis at 0, 2.5 and 5 mM xylose” value [2] was “identifying xylose as a mixed-inhibitor for the cellobiose phosphorolysis reaction”.
